In US10736320B2, “Pesticidally active polycyclic derivatives with 5-membered sulfur containing heterocyclic ring systems” (Syngenta Participations AG, priority 2015, dated 2020):

Tests used:
[1] = test system: Diabrotica balteata (corn root worm); assay: Insecticidal action against Diabrotica balteata (corn root worm), sprayed maize sprouts; assay type: in vivo; settings: 96 h, application rate of 200 ppm, L2 larvae, 4 days after infestation
Procedure: Maize sprouts, placed on an agar layer in 24-well microtiter plates were treated with aqueous test solutions prepared from 10,000 ppm DMSO stock solutions by spraying. After drying, the plates were infested with L2 larvae (6 to 10 per well). The samples were assessed for mortality 4 days after infestation.

[2] = test system: Plutella xylostella (diamond back moth); assay: Insecticidal action against Plutella xylostella (diamond back moth), treated artificial diet; assay type: in vivo; settings: 120 h, application rate of 200 ppm, L2 larvae, 5 days after infestation, read-out: effect in at least one of the two categories (mortality or growth inhibition)
Procedure: 24-well microtiter plates with artificial diet were treated with aqueous test solutions prepared from 10,000 ppm DMSO stock solutions by pipetting. After drying, the plates were infested with L2 larvae (10 to 15 per well). The samples were assessed for mortality and growth inhibition in comparison to untreated samples 5 days after infestation.

[3] = test system: Spodoptera littoralis (Egyptian cotton leaf worm); assay: Insecticidal action against Spodoptera littoralis (Egyptian cotton leaf worm), sprayed cotton leaf discs; assay type: in vivo; settings: foliar, 72 h, application rate of 200 ppm, L1 larvae, 3 days after infestation, read-out: control (at least one of mortality, anti-feedant effect, and growth inhibition)
Procedure: Cotton leaf discs were placed on agar in 24-well microtiter plates and sprayed with aqueous test solutions prepared from 10,000 ppm DMSO stock solutions. After drying the leaf discs were infested with five L1 larvae. The samples were assessed for mortality, anti-feedant effect, and growth inhibition in comparison to untreated samples 3 days after infestation. Control of Spodoptera littoralis by a test sample is when at least one of mortality, anti-feedant effect, and growth inhibition is higher than the untreated sample.

[4] = test system: Spodoptera littoralis (Egyptian cotton leaf worm); assay: Insecticidal action against Spodoptera littoralis (Egyptian cotton leaf worm), uptake by lettuce roots from agar; assay type: in vivo; settings: 144 h, test rate of 12.5 ppm, 6 days after infestation, read-out: effect in at least one of the three categories (mortality, anti-feedancy, or growth inhibition)
Text: Test compounds were applied by pipette from 10,000 ppm DMSO stock solutions into 24-well plates and mixed with agar. Lettuce seeds were placed on the agar and the multi well plate was closed by another plate which contains also agar. After 7 days the roots have absorbed the compound and the lettuce has grown into the lid plate. The lettuce leafs were now cut off into the lid plate. Spodoptera eggs were pipetted through a plastic stencil on a humid gel blotting paper and the plate closed with it. The samples were assessed for mortality, anti-feedant effect and growth inhibition in comparison to untreated samples 6 days after infestation.

[5] = test system: Myzus persicae (green peach aphid); assay: Insecticidal action against Myzus persicae (green peach aphid), sprayed sunflower leaf discs; assay type: in vivo; settings: foliar, 144 h, application rate of 200 ppm, aphid population of mixed ages, 6 days after infestation
Procedure: Sunflower leaf discs were placed on agar in a 24-well microtiter plate and sprayed with aqueous test solutions prepared from 10,000 ppm DMSO stock solutions. After drying, the leaf discs were infested with an aphid population of mixed ages. The samples were assessed for mortality 6 days after infestation.

melting point | SMILES | mortality at 200 ppm [1] | percent effect (mortality or growth inhibition) at 200 ppm [2] | mortality at 200 ppm [3] | other results
208 to 210 °C | CCS(=O)(=O)c1cc(C(F)(F)F)cnc1-c1ncc(-c2ccc(C(F)(F)F)cn2)s1 [Compound P13, 2-[3-ethylsulfonyl-5-(trifluoromethyl)-2-pyridyl]-5-[5-(trifluoromethyl)-2-pyridyl]thiazole] | – | – | – | –
– | CCS(=O)(=O)c1cc(C2CC2)cnc1-c1nnc(-c2cc(C(F)(F)F)ccn2)s1 [Compound P18, 2-(5-cyclopropyl-3-ethylsulfonyl-2-pyridyl)-5-[4-(trifluoromethyl)-2-pyridyl]-1,3,4-thiadiazole] | ≥ 80% | ≥ 80% | ≥ 80% | –
– | CCS(=O)(=O)c1cc(C(F)(F)F)ccc1-c1ncc(-c2cncc(C(F)(F)F)c2)s1 [Compound P9, 2-[2-ethylsulfonyl-4-(trifluoromethyl)phenyl]-5-[5-(trifluoromethyl)-3-pyridyl]thiazole] | ≥ 80% | – | ≥ 80% | –
– | CCS(=O)(=O)c1cc(C(F)(F)F)ccc1-c1nnc(-c2cncc(C(F)(F)F)c2)s1 [Compound P4, 2-[2-ethylsulfonyl-4-(trifluoromethyl)phenyl]-5-[5-(trifluoromethyl)-3-pyridyl]-1,3,4-thiadiazole] | ≥ 80% | ≥ 80% | ≥ 80% | percent control (mortality, anti-feedancy or growth inhibition) at 12.5 ppm [4]: ≥ 80%; mortality at 200 ppm [5]: ≥ 80%
– | CCS(=O)(=O)c1cc(C(F)(F)F)cnc1-c1nnc(-c2cncc(C(F)(F)F)c2)s1 [Compound P6, 2-[3-ethylsulfonyl-5-(trifluoromethyl)-2-pyridyl]-5-[5-(trifluoromethyl)-3-pyridyl]-1,3,4-thiadiazole] | ≥ 80% | ≥ 80% | ≥ 80% | –
– | CCS(=O)(=O)c1ccc(C2CC2)nc1-c1nnc(-c2cncc(C(F)(F)F)c2)s1 [Compound P20, 2-(6-cyclopropyl-3-ethylsulfonyl-2-pyridyl)-5-[5-(trifluoromethyl)-3-pyridyl]-1,3,4-thiadiazole] | ≥ 80% | ≥ 80% | ≥ 80% | –
110 to 112 °C | CCS(=O)(=O)c1cc(C(F)(F)F)cnc1-c1nccs1 [Compound P11, 2-[3-ethylsulfonyl-5-(trifluoromethyl)-2-pyridyl]thiazole] | – | – | – | –
– | CCS(=O)(=O)c1cc(C(F)(F)F)cnc1-c1ncc(-c2cncc(C(F)(F)F)c2)s1 [Compound P14, 2-[3-ethylsulfonyl-5-(trifluoromethyl)-2-pyridyl]-5-[5-(trifluoromethyl)-3-pyridyl]thiazole] | – | – | ≥ 80% | –
– | CCS(=O)(=O)c1ccc(-c2ncccn2)nc1-c1nnc(-c2cncc(C(F)(F)F)c2)s1 [Compound P17, 2-(3-ethylsulfonyl-6-pyrimidin-2-yl-2-pyridyl)-5-[5-(trifluoromethyl)-3-pyridyl]-1,3,4-thiadiazole] | ≥ 80% | ≥ 80% | – | –
143 to 145 °C | CCSc1cc(C(F)(F)F)ccc1-c1nnc(-c2cncc(C(F)(F)F)c2)s1 [Compound P3, 2-[2-ethylsulfanyl-4-(trifluoromethyl)phenyl]-5-[5-(trifluoromethyl)-3-pyridyl]-1,3,4-thiadiazole] | – | – | – | –
170 to 172 °C | CCSc1cc(C(F)(F)F)ccc1-c1nnc(-c2ccc(C(F)(F)F)nc2)s1 [Compound P2, 2-[2-ethylsulfanyl-4-(trifluoromethyl)phenyl]-5-[6-(trifluoromethyl)-3-pyridyl]-1,3,4-thiadiazole] | – | – | – | –
– | CCS(=O)(=O)c1cc(-c2ncccn2)cnc1-c1nnc(-c2cncc(C(F)(F)F)c2)s1 [Compound P16, 2-(3-ethylsulfonyl-5-pyrimidin-2-yl-2-pyridyl)-5-[5-(trifluoromethyl)-3-pyridyl]-1,3,4-thiadiazole] | ≥ 80% | – | – | –
– | CCSc1cc(C(F)(F)F)ccc1-c1ncc(-c2ccc(C(F)(F)F)nc2)s1 [Compound P7, 2-[2-ethylsulfanyl-4-(trifluoromethyl)phenyl]-5-[6-(trifluoromethyl)-3-pyridyl]thiazole] | – | ≥ 80% | – | –
– | CCS(=O)(=O)c1cc(C(F)(F)F)cnc1-c1nnc(-c2cc(C(F)(F)F)ccn2)s1 [Compound P10, 2-[3-ethylsulfonyl-5-(trifluoromethyl)-2-pyridyl]-5-[4-(trifluoromethyl)-2-pyridyl]-1,3,4-thiadiazole] | ≥ 80% | – | ≥ 80% | –
– | CCS(=O)(=O)c1cc(C(F)(F)F)ccc1-c1nnc(-c2ccc(C(F)(F)F)nc2)s1 [Compound P1, 2-[2-ethylsulfonyl-4-(trifluoromethyl)phenyl]-5-[6-(trifluoromethyl)-3-pyridyl]-1,3,4-thiadiazole] | ≥ 80% | ≥ 80% | ≥ 80% | –
228 to 230 °C | CCS(=O)(=O)c1cc(C(F)(F)F)cnc1-c1ncc(-c2ccc(C(F)(F)F)nc2)s1 [Compound P15, 2-[3-ethylsulfonyl-5-(trifluoromethyl)-2-pyridyl]-5-[6-(trifluoromethyl)-3-pyridyl]thiazole] | – | – | – | –
173 to 175 °C | CCS(=O)(=O)c1cc(C(F)(F)F)cnc1-c1ncc(-c2cc(C(F)(F)F)ccn2)s1 [Compound P12, 2-[3-ethylsulfonyl-5-(trifluoromethyl)-2-pyridyl]-5-[4-(trifluoromethyl)-2-pyridyl]thiazole] | – | – | – | –
– | CCS(=O)(=O)c1cc(C2CC2)cnc1-c1nnc(-c2cncc(C(F)(F)F)c2)s1 [Compound P19, 2-(5-cyclopropyl-3-ethylsulfonyl-2-pyridyl)-5-[5-(trifluoromethyl)-3-pyridyl]-1,3,4-thiadiazole] | ≥ 80% | ≥ 80% | ≥ 80% | mortality at 200 ppm [5]: ≥ 80%
193 to 195 °C | CCS(=O)(=O)c1cc(C(F)(F)F)cnc1-c1nnc(-c2ccc(C(F)(F)F)nc2)s1 [Compound P21, 2-[3-ethylsulfonyl-5-(trifluoromethyl)-2-pyridyl]-5-[6-(trifluoromethyl)-3-pyridyl]-1,3,4-thiadiazole] | – | – | – | –
– | CCS(=O)(=O)c1cc(C(F)(F)F)ccc1-c1ncc(-c2ccc(C(F)(F)F)nc2)s1 [Compound P8, 2-[2-ethylsulfonyl-4-(trifluoromethyl)phenyl]-5-[6-(trifluoromethyl)-3-pyridyl]thiazole] | ≥ 80% | ≥ 80% | ≥ 80% | –
151 to 153 °C | CCSc1cc(C(F)(F)F)cnc1-c1nnc(-c2cncc(C(F)(F)F)c2)s1 [Compound P5, 2-[3-ethylsulfanyl-5-(trifluoromethyl)-2-pyridyl]-5-[5-(trifluoromethyl)-3-pyridyl]-1,3,4-thiadiazole] | – | – | – | –
